Assay results reported in the NIST ThermoML archive (doi:10.1016/j.jct.2008.08.011).

Assay: osmotic coefficient (dimensionless); mn = molality of the nth substance listed, in mol/kg
Conditions: 101 kPa, Liquid, Knauer K-7000 vapour pressure osmometer

CCCCn1cc[n+](C)c1.[Cl-] [1-butyl-3-methylimidazolium chloride] + CCO
osmotic coefficient
Conditions	313.15 K	333.15 K
m1 = 0.1278	1.02	0.782
m1 = 0.3749	0.887	0.709
m1 = 0.6198	0.802	0.666
m1 = 0.7747	0.783	0.647
m1 = 1.096	0.742	0.63
m1 = 1.437	0.717	0.613
m1 = 1.904	0.685	0.589
m1 = 2.318	0.68	0.576
m1 = 2.688	0.657	0.566
m1 = 3.018	0.653	0.553
m1 = 3.348	0.66	0.55
m1 = 3.521	0.66	0.548

CCn1cc[n+](C)c1.[Cl-] [1-ethyl-3-methylimidazolium chloride] + O
osmotic coefficient
Conditions	313.15 K	333.15 K
m1 = 0.1847	0.97	0.936
m1 = 0.3033	0.949	0.918
m1 = 0.3896	0.941	0.896
m1 = 0.5094	0.923	0.865
m1 = 0.7105	0.895	0.847
m1 = 1.047	0.861	0.812
m1 = 1.294	0.842	0.801
m1 = 1.678	0.835	0.79
m1 = 2.113	0.831	0.784
m1 = 2.49	0.829	0.788
m1 = 2.947	0.844	0.797
m1 = 3.237	0.852	0.809
m1 = 3.722	0.885	0.831
m1 = 4.113	0.921	0.855

CCOS(=O)(=O)[O-].CC[n+]1cccc(C)c1 [1-ethyl-3-methylpyridinium ethylsulfate] + O
osmotic coefficient
Conditions	313.15 K	333.15 K
m1 = 0.1419	0.956	0.948
m1 = 0.2108	0.927	0.925
m1 = 0.3168	0.897	0.887
m1 = 0.3829	0.873	0.864
m1 = 0.5036	0.846	0.836
m1 = 0.6837	0.828	0.811
m1 = 1.034	0.813	0.784
m1 = 1.326	0.808	0.782
m1 = 1.726	0.807	0.782
m1 = 2.11	0.813	0.792
m1 = 2.501	0.826	0.802
m1 = 2.892	0.843	0.809
m1 = 3.303	0.859	0.817

CCCCCCn1cc[n+](C)c1.[Cl-] [1-hexyl-3-methylimidazolium chloride] + CCO
osmotic coefficient
Conditions	313.15 K	333.15 K
m1 = 0.0583	0.955	0.742
m1 = 0.0975	0.92	0.714
m1 = 0.4274	0.735	0.608
m1 = 0.6999	0.695	0.584
m1 = 1.014	0.677	0.568
m1 = 1.354	0.662	0.561
m1 = 1.597	0.659	0.558
m1 = 1.924	0.652	0.551
m1 = 2.211	0.648	0.553
m1 = 2.579	0.636	0.544
m1 = 2.859	0.635	0.544
m1 = 3.272	0.628	0.535
